Measurements reported in BindingDB's records for doi:10.7270/Q2ZP44H3 (Vanderbilt Screening Center For Gpcrs, Ion Channels and …, 2009).

Target: T1, Solute carrier family 12 member 5 (Homo sapiens, UniProt Q9H2X9)
T1 sequence (Q9H2X9 whole entry): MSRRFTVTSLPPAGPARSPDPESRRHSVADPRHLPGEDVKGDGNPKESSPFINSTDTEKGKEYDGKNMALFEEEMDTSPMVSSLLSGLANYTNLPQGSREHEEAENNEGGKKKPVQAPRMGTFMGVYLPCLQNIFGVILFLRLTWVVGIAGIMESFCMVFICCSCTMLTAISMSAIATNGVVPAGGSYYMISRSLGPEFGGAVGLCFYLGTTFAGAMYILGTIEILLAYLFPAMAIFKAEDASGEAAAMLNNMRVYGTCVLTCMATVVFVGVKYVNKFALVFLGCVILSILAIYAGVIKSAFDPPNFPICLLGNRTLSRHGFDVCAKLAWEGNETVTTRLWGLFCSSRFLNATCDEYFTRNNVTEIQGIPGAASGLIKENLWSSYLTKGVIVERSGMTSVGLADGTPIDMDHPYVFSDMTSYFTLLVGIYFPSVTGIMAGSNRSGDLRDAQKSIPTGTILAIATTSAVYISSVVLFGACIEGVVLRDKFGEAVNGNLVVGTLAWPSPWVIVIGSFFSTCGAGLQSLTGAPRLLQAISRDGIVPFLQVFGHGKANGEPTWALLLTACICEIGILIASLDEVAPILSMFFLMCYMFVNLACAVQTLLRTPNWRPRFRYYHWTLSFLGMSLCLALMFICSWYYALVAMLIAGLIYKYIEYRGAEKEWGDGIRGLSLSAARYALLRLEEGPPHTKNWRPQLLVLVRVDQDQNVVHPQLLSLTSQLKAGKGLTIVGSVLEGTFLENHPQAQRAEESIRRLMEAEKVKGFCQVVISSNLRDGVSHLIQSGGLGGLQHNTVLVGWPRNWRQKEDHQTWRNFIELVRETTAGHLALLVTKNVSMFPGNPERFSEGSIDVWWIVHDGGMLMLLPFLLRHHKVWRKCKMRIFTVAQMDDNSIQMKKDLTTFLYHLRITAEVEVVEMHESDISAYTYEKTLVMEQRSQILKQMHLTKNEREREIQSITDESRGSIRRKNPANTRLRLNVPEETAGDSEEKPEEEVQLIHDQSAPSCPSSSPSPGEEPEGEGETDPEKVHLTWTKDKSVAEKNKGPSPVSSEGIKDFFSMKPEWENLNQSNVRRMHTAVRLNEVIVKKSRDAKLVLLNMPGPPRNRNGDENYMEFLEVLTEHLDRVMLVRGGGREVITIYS
Assay: KCC2 and NKCC1 inhibition by rubidium flux, cell-based, NKCC1 counter-screen (AID 1734)

**Q.** How did the IC50 turn out when `CCOc1ccc(-n2c(O)c3c(c2O)C(C=Cc2ccccc2)c2sc(=O)[nH]c2S3)cc1` (stereo unspecified) was run?
**A.** 300 nM
